Tested on: RA patients
Experiment: Total cholesterol determination, Study 1 (RA patients with inadequate response to methotrexate, add-on to MTX)
Format: in vivo, human
Experimental: Double-blind, placebo-controlled add on study in subjects with moderately to severely active RA who have an inadequate response to methotrexate (MTX) (oral or parenteral).
595 subjects randomized to one of 6 dose regimens of Compound 1 (dosed as a [Compound 1:HCl:3H2O]) (3 dose levels administered either once or twice daily) or placebo on top of each subject's stable dose of MTX.
Compound 1 (dosed as a [Compound 1:HCl:3H2O]) is dosed for twelve weeks once daily (q.d.) (50 mg, 100 mg or 200 mg) or twice daily (b.i.d.) (25 mg, 50 mg or 100 mg); or placebo.
At Week 12, the subjects on placebo who have not achieved 20% improvement in swollen joint count (SJC66) and tender joint count (TJC68) are re-randomized automatically to receive Compound 1 (dosed as a [Compound 1:HCl:3H2O]) either at 100 mg q.d. or 50 mg b.i.d. doses in a blinded fashion; subjects on 50 mg q.d. who have not achieved 20% improvement in SJC66 and TJC68 will be assigned to 100 mg q.d. and subjects on 25 mg b.i.d. that have not achieved a 20% improvement in SJC66 and TJC68 will be assigned to 50 mg b.i.d. Subjects who switch treatment at week 12 are handled as if they discontinued at week 12 for the purpose of statistical analysis, whereas subjects in the other groups will maintain their randomized treatment until Week 24.
This method is based on the determination of Δ^4 cholestenone after enzymatic cleavage of the cholesterol ester by cholesterol esterase, conversion of cholesterol by cholesterol oxidase, and subsequent measurement by the Trinder reaction of the hydrogen peroxide formed (Allain et al., 1974).
Cholesterol esters are cleaved by the action of cholesterol esterase to yield free cholesterol and fatty acids. Cholesterol oxidase then catalyzes the oxidation of cholesterol to cholest-4-en-3-one and hydrogen peroxide. In the presence of peroxidase, the hydrogen peroxide formed effects the oxidative coupling of phenol and 4-aminophenazone to form a red quinone-imine dye. The color intensity of the dye formed is directly proportional to the cholesterol concentration. It is determined by measuring the increase in absorbance.
Human serum and plasma samples cholesterol determination was done on a Roche/Hitachi Cobas c 701/702 system which automatically calculate the analyte concentration of each sample.

[1] = Study 1 12 weeks results, 2 x 25 mg b.i.d., week 2
[2] = Study 1 12 weeks results, 2 x 25 mg b.i.d., week 4
[3] = Study 1 12 weeks results, 2 x 25 mg b.i.d., week 8
[4] = Study 1 12 weeks results, 2 x 25 mg b.i.d., week 12
[5] = Study 1 12 weeks results, 2 x 50 mg b.i.d., week 1
[6] = Study 1 12 weeks results, 2 x 50 mg b.i.d., week 2
[7] = Study 1 12 weeks results, 2 x 50 mg b.i.d., week 4
[8] = Study 1 12 weeks results, 2 x 50 mg b.i.d., week 8
[9] = Study 1 12 weeks results, 2 x 50 mg b.i.d., week 12
[10] = Study 1 12 weeks results, 2 x 100 mg b.i.d., week 1
[11] = Study 1 12 weeks results, 2 x 100 mg b.i.d., week 2
[12] = Study 1 12 weeks results, 2 x 100 mg b.i.d., week 4
[13] = Study 1 12 weeks results, 2 x 100 mg b.i.d., week 8
[14] = Study 1 12 weeks results, 2 x 100 mg b.i.d., week 12
[15] = Study 1 24 weeks results, continued 50 mg q.d., week 1
[16] = Study 1 24 weeks results, continued 50 mg q.d., week 2
[17] = Study 1 24 weeks results, continued 50 mg q.d., week 4
[18] = Study 1 24 weeks results, continued 50 mg q.d., week 8
[19] = Study 1 24 weeks results, continued 50 mg q.d., week 12
[20] = Study 1 24 weeks results, continued 50 mg q.d., week 16
[21] = Study 1 24 weeks results, continued 50 mg q.d., week 20
[22] = Study 1 24 weeks results, continued 50 mg q.d., week 24

`O=C(Nc1nc2cccc(-c3ccc(CN4CCS(=O)(=O)CC4)cc3)n2n1)C1CC1` [Compound 1, cyclopropanecarboxylic acid {5-[4-(1,1-dioxo-thiomorpholin-4-ylmethyl)-phenyl]-[1,2,4]triazolo[1,5-a]pyridin-2yl}-amide] was tested, and the “[total cholesterol] Mean CFB” value (Study 1 12 weeks results, 2 x 25 mg b.i.d., week 1) was 0.1 mmol/L, the “[Total cholesterol] Median CFB” value [1] was 0.10 mmol/L and the “[total cholesterol] Mean CFB” value [1] was 0.1 mmol/L. For the same molecule, the “[Total cholesterol] Median CFB” value [2] was 0.05 mmol/L, the “[total cholesterol] Mean CFB” value [2] was 0.1 mmol/L and the “[Total cholesterol] Median CFB” value [3] was 0.05 mmol/L. For the same molecule, the “[total cholesterol] Mean CFB” value [3] was 0.1 mmol/L, the “[Total cholesterol] Median CFB” value [4] was 0.13 mmol/L and the “[total cholesterol] Mean CFB” value [4] was 0.2 mmol/L. The “[Total cholesterol] Median CFB” value [5] was 0.21 mmol/L, the “[total cholesterol] Mean CFB” value [5] was 0.1 mmol/L and the “[Total cholesterol] Median CFB” value [6] was 0.18 mmol/L. The “[total cholesterol] Mean CFB” value [6] was 0.1 mmol/L, the “[Total cholesterol] Median CFB” value [7] was 0.28 mmol/L and the “[total cholesterol] Mean CFB” value [7] was 0.3 mmol/L. For the same molecule, the “[Total cholesterol] Median CFB” value [8] was 0.22 mmol/L, the “[total cholesterol] Mean CFB” value [8] was 0.2 mmol/L and the “[Total cholesterol] Median CFB” value [9] was 0.23 mmol/L. For the same molecule, the “[total cholesterol] Mean CFB” value [9] was 0.2 mmol/L, the “[Total cholesterol] Median CFB” value [10] was 0.28 mmol/L and the “[total cholesterol] Mean CFB” value [10] was 0.3 mmol/L. For the same molecule, the “[Total cholesterol] Median CFB” value [11] was 0.31 mmol/L, the “[total cholesterol] Mean CFB” value [11] was 0.4 mmol/L and the “[Total cholesterol] Median CFB” value [12] was 0.45 mmol/L. The “[total cholesterol] Mean CFB” value [12] was 0.4 mmol/L, the “[Total cholesterol] Median CFB” value [13] was 0.55 mmol/L and the “[total cholesterol] Mean CFB” value [13] was 0.6 mmol/L. For the same molecule, the “[Total cholesterol] Median CFB” value [14] was 0.80 mmol/L, the “[total cholesterol] Mean CFB” value [14] was 0.6 mmol/L and the “[total cholesterol] Mean CFB” value (Study 1 24 weeks results, continued 25 mg b.i.d, week 1) was 0.11 mmol/L. The “[total cholesterol] Mean CFB” value (Study 1 24 weeks results, continued 25 mg b.i.d, week 2) was 0.12 mmol/L, the “[total cholesterol] Mean CFB” value (Study 1 24 weeks results, continued 25 mg b.i.d, week 4) was 0.14 mmol/L and the “[total cholesterol] Mean CFB” value (Study 1 24 weeks results, continued 25 mg b.i.d, week 8) was 0.15 mmol/L. For the same molecule, the “[total cholesterol] Mean CFB” value (Study 1 24 weeks results, continued 25 mg b.i.d, week 12) was 0.26 mmol/L, the “[total cholesterol] Mean CFB” value (Study 1 24 weeks results, continued 25 mg b.i.d, week 16) was 0.20 mmol/L and the “[total cholesterol] Mean CFB” value (Study 1 24 weeks results, continued 25 mg b.i.d, week 20) was 0.27 mmol/L. The “[total cholesterol] Mean CFB” value (Study 1 24 weeks results, continued 25 mg b.i.d, week 24) was 0.24 mmol/L, the “[total cholesterol] Mean CFB” value (Study 1 24 weeks results, continued 50 mg b.i.d., week 1) was 0.15 mmol/L and the “[total cholesterol] Mean CFB” value (Study 1 24 weeks results, continued 50 mg b.i.d., week 2) was 0.14 mmol/L. The “[total cholesterol] Mean CFB” value (Study 1 24 weeks results, continued 50 mg b.i.d., week 4) was 0.28 mmol/L, the “[total cholesterol] Mean CFB” value (Study 1 24 weeks results, continued 50 mg b.i.d., week 8) was 0.21 mmol/L and the “[total cholesterol] Mean CFB” value (Study 1 24 weeks results, continued 50 mg b.i.d., week 12) was 0.23 mmol/L. The “[total cholesterol] Mean CFB” value (Study 1 24 weeks results, continued 50 mg b.i.d., week 16) was 0.24 mmol/L, the “[total cholesterol] Mean CFB” value (Study 1 24 weeks results, continued 50 mg b.i.d., week 20) was 0.32 mmol/L and the “[total cholesterol] Mean CFB” value (Study 1 24 weeks results, continued 50 mg b.i.d., week 24) was 0.34 mmol/L. The “[Total cholesterol] Median CFB” value [15] was 0.00 mmol/L, the “[total cholesterol] Mean CFB” value [15] was 0.03 mmol/L and the “[Total cholesterol] Median CFB” value [16] was 0.00 mmol/L. The “[total cholesterol] Mean CFB” value [16] was -0.01 mmol/L, the “[Total cholesterol] Median CFB” value [17] was 0.05 mmol/L and the “[total cholesterol] Mean CFB” value [17] was 0.05 mmol/L. The “[Total cholesterol] Median CFB” value [18] was 0.20 mmol/L, the “[total cholesterol] Mean CFB” value [18] was 0.14 mmol/L and the “[Total cholesterol] Median CFB” value [19] was 0.25 mmol/L. For the same molecule, the “[total cholesterol] Mean CFB” value [19] was 0.24 mmol/L, the “[Total cholesterol] Median CFB” value [20] was 0.25 mmol/L and the “[total cholesterol] Mean CFB” value [20] was 0.21 mmol/L. For the same molecule, the “[Total cholesterol] Median CFB” value [21] was 0.25 mmol/L, the “[total cholesterol] Mean CFB” value [21] was 0.20 mmol/L and the “[Total cholesterol] Median CFB” value [22] was 0.30 mmol/L. For the same molecule, the “[total cholesterol] Mean CFB” value [22] was 0.28 mmol/L and the “[total cholesterol] Mean CFB” value (Study 1 24 weeks results, continued 100 mg b.i.d., week 1) was 0.30 mmol/L.

Source: US10376520B2, “Methods for the treatment of cardiovascular disorders” (Galapagos NV, priority 2015, dated 2019)
